The results in this text go back to patent US20240360082A1, “SUBSTITUTED PYRIDONE COMPOUNDS USEFUL TO TREAT ORTH[…]” (priority 2021, published 2024).

The first assay deals with influenza A virus minigenome (PB2, PB1, PA, NP proteins) (UniProt P04665). The assay is classed as cell-based. The following applies: read-out: RNP_ Hubei B IC50.
Chain of influenza A virus minigenome (PB2, PB1, PA, NP proteins) (P04665 whole entry): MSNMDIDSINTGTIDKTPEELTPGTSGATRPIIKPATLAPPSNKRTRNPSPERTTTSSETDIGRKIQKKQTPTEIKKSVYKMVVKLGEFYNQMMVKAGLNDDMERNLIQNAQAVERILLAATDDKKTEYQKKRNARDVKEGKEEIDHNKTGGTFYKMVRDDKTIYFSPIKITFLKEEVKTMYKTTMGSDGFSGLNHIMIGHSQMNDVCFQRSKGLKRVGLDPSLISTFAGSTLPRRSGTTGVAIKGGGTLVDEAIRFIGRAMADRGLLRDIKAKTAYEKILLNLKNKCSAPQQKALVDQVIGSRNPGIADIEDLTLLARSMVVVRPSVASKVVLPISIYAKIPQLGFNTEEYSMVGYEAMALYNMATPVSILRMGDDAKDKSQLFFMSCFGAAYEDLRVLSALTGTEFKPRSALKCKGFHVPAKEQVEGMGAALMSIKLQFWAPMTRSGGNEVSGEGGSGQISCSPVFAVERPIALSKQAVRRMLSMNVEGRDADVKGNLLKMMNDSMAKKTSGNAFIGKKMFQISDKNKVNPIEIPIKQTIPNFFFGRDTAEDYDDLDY
In the case of `C[C@]1(CF)COC[C@@H](COc2ccc(-c3cc(C(N)=O)c(=O)[nH]c3C(F)(F)F)cc2)O1` [Example 420, 5-(4-(((2S,6R)-6-(fluoromethyl)-6-methyl-1,4-dioxan-2-yl)methoxy)phenyl)-2-oxo-6-(trifluoromethyl)-1,2-dihydropyridine-3-carboxamide], the IC50 fell in the range of 5 to 10 µM.
Same read-out and setting: in the case of `COC[C@H]1COC[C@@H](COc2ccc(-c3cc(C(N)=O)c(=O)[nH]c3C(F)(F)F)cc2)O1` [Example 398, 5-(4-(((2S,6S)-6-(methoxymethyl)-1,4-dioxan-2-yl)methoxy)phenyl)-2-oxo-6-(trifluoromethyl)-1,2-dihydropyridine-3-carboxamide] it was 5 to 10 µM.
On the same count and under the same terms, in the case of `COCC1OC(COc2ccc(-c3cc(C(N)=O)c(=O)[nH]c3C(F)(F)F)cc2)COC1C` (single isomer, unassigned) [Example 392, 5-(4-((6-(methoxymethyl)-5-methyl-1,4-dioxan-2-yl)methoxy)phenyl)-2-oxo-6-(trifluoromethyl)-1,2-dihydropyridine-3-carboxamide] it was 5 to 10 µM; in that of `CC1(C)CC[C@@H](COc2ccc(-c3cc(C(N)=O)c(=O)[nH]c3C(F)(F)F)cc2)O1` [Example 300, (S)-5-(4-((5,5-dimethyltetrahydrofuran-2-yl)methoxy)phenyl)-2-oxo-6-(trifluoromethyl)-1,2-dihydropyridine-3-carboxamide], 10 to 25 µM; in that of `Cc1cncc(COc2ccc(-c3cc(C(N)=O)c(=O)[nH]c3C(F)(F)F)cc2)n1` [Example 283, 5-(4-((6-methylpyrazin-2-yl)methoxy)phenyl)-2-oxo-6-(trifluoromethyl)-1,2-dihydropyridine-3-carboxamide], 5 to 10 µM.
Regarding `CN1CC(COc2ccc(-c3cc(C(N)=O)c(=O)[nH]c3C(F)(F)F)cc2)OC1=O` (centres unmarked) [Example 233, 5-(4-((3-methyl-2-oxooxazolidin-5-yl)methoxy)phenyl)-2-oxo-6-(trifluoromethyl)-1,2-dihydropyridine-3-carboxamide], the IC50 was in the range of 25 to 50 µM.
As for `Cn1cc(COc2ccc(-c3cc(C(N)=O)c(=O)[nH]c3C(F)(F)F)cc2)cn1` [Example 220, 5-(4-((1-methyl-1H-pyrazol-4-yl)methoxy)phenyl)-2-oxo-6-(trifluoromethyl)-1,2-dihydropyridine-3-carboxamide], the IC50 was in the range of 25 to 50 µM.
Same read-out and setting: in the case of `C[C@]12O[C@@H](COc3ccc(-c4cc(C(N)=O)c(=O)[nH]c4C(F)(F)F)cc3)CO[C@H]1C2(F)F` [Example 397, 5-(4-(((1S,3R,6R)-7,7-difluoro-1-methyl-2,5-dioxabicyclo[4.1.0]heptan-3-yl)methoxy)phenyl)-2-oxo-6-(trifluoromethyl)-1,2-dihydropyridine-3-carboxamide] it was 5 to 10 µM.
The same measure, in the same setting: in the case of `CN(C)C(=O)[C@@]1(C)COC[C@@H](COc2ccc(-c3cc(C(N)=O)c(=O)[nH]c3C(F)(F)F)cc2)O1` [Example 409, 5-(4-(((2S,6R)-6-(dimethylcarbamoyl)-6-methyl-1,4-dioxan-2-yl)methoxy)phenyl)-2-oxo-6-(trifluoromethyl)-1,2-dihydropyridine-3-carboxamide] it was 5 to 10 µM.
Same read-out and setting: in the case of `CC(C)n1cc2c(n1)COCC2COc1ccc(-c2cc(C(N)=O)c(=O)[nH]c2C(F)(F)F)cc1` (single isomer, unassigned) [Example 295, 5-(4-((2-isopropyl-2,4,5,7-tetrahydropyrano[3,4-c]pyrazol-4-yl)methoxy)phenyl)-2-oxo-6-(trifluoromethyl)-1,2-dihydropyridine-3-carboxamide] it was 5 to 10 µM.
Turning to `CC1(C2COCC(COc3ccc(-c4cc(C(N)=O)c(=O)[nH]c4C(F)(F)F)cc3)O2)CC1` (single isomer, unassigned) [Example 356, 5-(4-((6-(1-methylcyclopropyl)-1,4-dioxan-2-yl)methoxy)phenyl)-2-oxo-6-(trifluoromethyl)-1,2-dihydropyridine-3-carboxamide], the IC50 was in the range of 5 to 10 µM.
Same read-out and setting: then `NC(=O)c1cc(-c2ccc(OCC3COCCO3)cc2)c(C(F)(F)F)[nH]c1=O` (single isomer, unassigned) [Example 237, 5-(4-((1,4-dioxan-2-yl)methoxy)phenyl)-2-oxo-6-(trifluoromethyl)-1,2-dihydropyridine-3-carboxamide], with 25 to 50 µM; and `C[C@]1(COC(F)F)COC[C@@H](COc2ccc(-c3cc(C(N)=O)c(=O)[nH]c3C(F)(F)F)cc2)O1` [Example 425, 5-(4-(((2S,6R)-6-((difluoromethoxy)methyl)-6-methyl-1,4-dioxan-2-yl)methoxy)phenyl)-2-oxo-6-(trifluoromethyl)-1,2-dihydropyridine-3-carboxamide], with 5 to 10 µM; and `CC(C)(C)OC(=O)N1C[C@@H](F)C[C@H]1COc1ccc(-c2cc(C(N)=O)c(=O)[nH]c2C(F)(F)F)cc1` [Example 306, tert-butyl (2S,4S)-2-((4-(5-carbamoyl-6-oxo-2-(trifluoromethyl)-1,6-dihydropyridin-3-yl)phenoxy)methyl)-4-fluoropyrrolidine-1-carboxylate], with 5 to 10 µM.
`COC[C@H]1COC[C@H](COc2ccc(-c3cc(C(N)=O)c(=O)[nH]c3C(F)(F)F)cc2)O1` (single isomer, unassigned) [Example 401]: the IC50 lay within 5 to 10 µM.
Same read-out and setting: in the case of `NC(=O)c1cc(-c2ccc(OCc3cocn3)cc2)c(C(F)(F)F)[nH]c1=O` [Example 266, 5-(4-(oxazol-4-ylmethoxy)phenyl)-2-oxo-6-(trifluoromethyl)-1,2-dihydropyridine-3-carboxamide] it was 25 to 50 µM; in that of `CC1(OC[C@@]2(C)COC[C@@H](COc3ccc(-c4cc(C(N)=O)c(=O)[nH]c4C(F)(F)F)cc3)O2)COC1` [Example 429], 5 to 10 µM; in that of `Cc1cc(COc2ccc(-c3cc(C(N)=O)c(=O)[nH]c3C(F)(F)F)cc2)no1` [Example 224, 5-(4-((5-methylisoxazol-3-yl)methoxy)phenyl)-2-oxo-6-(trifluoromethyl)-1,2-dihydropyridine-3-carboxamide], 25 to 50 µM.
For `CC(F)(F)C1COCC(COc2ccc(-c3cc(C(N)=O)c(=O)[nH]c3C(F)(F)F)cc2)O1` (single isomer, unassigned) [Example 358, 5-(4-((6-(1,1-difluoroethyl)-1,4-dioxan-2-yl)methoxy)phenyl)-2-oxo-6-(trifluoromethyl)-1,2-dihydropyridine-3-carboxamide], the IC50 was 5 to 10 µM.

The assay is the same for the next values; noted with them: read-out: RNP_Hubei B.
Regarding `CC(C)S(=O)(=O)N1CCOC(COc2ccc(-c3cc(C(N)=O)c(=O)[nH]c3C(F)(F)F)cc2)C1` (centres unmarked) [Example 191, 5-(4-((4-(isopropylsulfonyl)morpholin-2-yl)methoxy)phenyl)-2-oxo-6-(trifluoromethyl)-1,2-dihydropyridine-3-carboxamide], the IC50 is 25 to 50 µM.
Same read-out and setting: in the case of `NC(=O)c1cc(-c2ccc(OCc3ccncc3)cc2)c(C(F)(F)F)[nH]c1=O` [Example 70, 2-oxo-5-(4-(pyridin-4-ylmethoxy)phenyl)-6-(trifluoromethyl)-1,2-dihydropyridine-3-carboxamide] it was 25 to 50 µM; in that of `NC(=O)c1cc(-c2ccc(CN3CCOCC3)cc2F)c(C(F)(F)F)[nH]c1=O` [Example 42, 5-(2-fluoro-4-(morpholinomethyl)phenyl)-2-oxo-6-(trifluoromethyl)-1,2-dihydropyridine-3-carboxamide], 10 to 25 µM.
As to `NC(=O)c1cc(-c2ccc(OCc3ccn4ccnc4c3)cc2)c(C(F)(F)F)[nH]c1=O` [Example 91, 5-(4-(imidazo[1,2-a]pyridin-7-ylmethoxy)phenyl)-2-oxo-6-(trifluoromethyl)-1,2-dihydropyridine-3-carboxamide], the IC50 lay in the range of 25 to 50 µM.
The same measure, in the same setting: in the case of `NC(=O)c1cc(-c2ccc(OCc3cncs3)cc2)c(C(F)(F)F)[nH]c1=O` [Example 134, 2-oxo-5-(4-(thiazol-5-ylmethoxy)phenyl)-6-(trifluoromethyl)-1,2-dihydropyridine-3-carboxamide] it was 25 to 50 µM; in that of `COCCN1CCOC(COc2ccc(-c3cc(C(N)=O)c(=O)[nH]c3C(F)(F)F)cc2)C1` (centres unmarked) [Example 193, 5-(4-((4-(2-methoxyethyl)morpholin-2-yl)methoxy)phenyl)-2-oxo-6-(trifluoromethyl)-1,2-dihydropyridine-3-carboxamide], 25 to 50 µM; in that of `NC(=O)c1cc(-c2ccc(OCc3cnc(NCC4CC4)nc3)cc2)c(C(F)(F)F)[nH]c1=O` [Example 161], 10 to 25 µM.
Still for that read-out and setting: then `NC(=O)c1cc(-c2ccc(OCc3cncc(C4(O)COC4)c3)cc2)c(C(F)(F)F)[nH]c1=O` [Example 181, 5-(4-((5-(3-hydroxyoxetan-3-yl)pyridin-3-yl)methoxy)phenyl)-2-oxo-6-(trifluoromethyl)-1,2-dihydropyridine-3-carboxamide], with 25 to 50 µM.
In the case of `NC(=O)c1cc(-c2ccc(OCC3OCC4CCC3O4)cc2)c(C(F)(F)F)[nH]c1=O` (single isomer, unassigned) [Example 317, 5-(4-((3,8-dioxabicyclo[3.2.1]octan-2-yl)methoxy)phenyl)-2-oxo-6-(trifluoromethyl)-1,2-dihydropyridine-3-carboxamide], the IC50 lay in the range of 5 to 10 µM.
Same read-out and setting: then `NC(=O)c1cc(-c2ccc(CN3CCOCC3)c(F)c2)c(C(F)(F)F)[nH]c1=O` [Example 36, 5-(3-fluoro-4-(morpholinomethyl)phenyl)-2-oxo-6-(trifluoromethyl)-1,2-dihydropyridine-3-carboxamide], with 10 to 25 µM; and `CC1(C)CN(Cc2ccc(-c3cc(C(N)=O)c(=O)[nH]c3C(F)(F)F)cc2)CCO1` [Example 39, 5-(4-((2,2-dimethylmorpholino)methyl)phenyl)-2-oxo-6-(trifluoromethyl)-1,2-dihydropyridine-3-carboxamide], with 10 to 25 µM.
Still for that read-out and setting: in the case of `NC(=O)c1cc(-c2ccc(OCc3ccc4cc[nH]c4c3)cc2)c(C(F)(F)F)[nH]c1=O` [Example 86, 5-(4-((1H-indol-6-yl)methoxy)phenyl)-2-oxo-6-(trifluoromethyl)-1,2-dihydropyridine-3-carboxamide] it was 5 to 10 µM; in that of `NC(=O)c1cc(-c2ccc(OC(c3cccnc3)C3CC3)cc2)c(C(F)(F)F)[nH]c1=O` (centres unmarked) [Example 184, 5-(4-(cyclopropyl(pyridin-3-yl)methoxy)phenyl)-2-oxo-6-(trifluoromethyl)-1,2-dihydropyridine-3-carboxamide], 10 to 25 µM.
